# Assays:
# [1] = biological target: 5-hydroxytryptamine receptor 7 (Homo sapiens, UniProt P34969); experiment: Displacement of [3H]-5-CT from human full length 5HT7BR expressed in HEK293 cells by radioligand binding assay; format: cell-based
# [2] = biological target: T1, 5-hydroxytryptamine receptor 1A (Homo sapiens, UniProt P08908); experiment: Displacement of [3H]-[…] from human full length 5-HT1AR expressed in HEK293 cells by radioligand binding assay; format: cell-based
# T1 sequence (P08908 whole entry): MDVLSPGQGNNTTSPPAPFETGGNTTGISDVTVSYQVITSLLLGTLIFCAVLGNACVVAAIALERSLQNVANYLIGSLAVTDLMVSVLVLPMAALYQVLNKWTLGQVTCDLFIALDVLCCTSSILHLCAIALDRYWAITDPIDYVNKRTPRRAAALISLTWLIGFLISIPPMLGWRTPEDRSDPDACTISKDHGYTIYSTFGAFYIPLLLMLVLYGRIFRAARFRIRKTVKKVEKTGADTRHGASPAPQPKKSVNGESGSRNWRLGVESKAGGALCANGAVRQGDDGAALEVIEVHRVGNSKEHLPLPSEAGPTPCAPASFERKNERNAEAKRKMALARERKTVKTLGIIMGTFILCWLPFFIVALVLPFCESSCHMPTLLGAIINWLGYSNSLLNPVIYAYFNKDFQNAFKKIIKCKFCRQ
# [3] = biological target: 5-hydroxytryptamine receptor 2A (Homo sapiens, UniProt P28223); experiment: Displacement of [3H]-ketanserin from 5-HT2AR (unknown origin) expressed in CHO-K1 cells by radioligand binding assay; format: cell-based
# [4] = biological target: T2, 5-hydroxytryptamine receptor 6 (Homo sapiens, UniProt P50406); experiment: Displacement of [3H]-LSD from human full length 5HT6R expressed in HEK293 cells by radioligand binding assay; format: cell-based
# D(2) dopamine receptor [5] = biological target: T3, D(2) dopamine receptor (Homo sapiens, UniProt P14416); experiment: Displacement of [3H]-raclopride from human full length D2L receptor expressed in HEK293 cells by radioligand binding assay; format: cell-based
# Homo sapiens = species: Homo sapiens; experiment: Selectivity ratio of Ki for human full length D2L receptor expressed in HEK293 cells to Ki for human full length 5-HT1AR expressed in HEK293 cells; format: cell-based
# [6] = biological target: T4, 5-hydroxytryptamine receptor 1A (Homo sapiens) (UniProt P08908); experiment: Binding affinity to human full length 5-HT1AR expressed in HEK293 cells by Cheng-Prusoff equation analysis; format: cell-based; settings: filed as antagonist
# T4 sequence (whole entry): T1 sequence (P08908 whole entry)
# [7] = biological target: T1, 5-hydroxytryptamine receptor 1A; experiment: Displacement of [3H]-[…] from human 5-HT1AR in human brain tissue by radioligand binding assay; format: tissue-based
# [8] = Hepatotoxicity in human HepG2 cells at 1 to 10 uM incubated for 72 hrs by MTS assay; format: toxicity, cell-based; settings: hepg2, 72 h, dose 1-10 µM
# [9] = Hepatotoxicity in human HepG2 cells assessed as reduction in cell viability at 50 to 100 uM incubated for 72 hrs by MTS assay; format: toxicity, cell-based; settings: hepg2, 72 h, dose 50-100 µM
# [10] = Metabolic stability in mouse liver microsomes assessed as parent compound remaining at 50 uM measured after 120 mins by UPLC-MS analysis; format: ADME, Microsome; settings: read-out: Stability
# CYP3A4 = CYP3A4 (Homo sapiens, UniProt P08684); experiment: Inhibition of CYP3A4 (unknown origin) at 10 uM by luminescence based Glo assay; format: ADME; settings: CYP3A4 enzyme (unknown origin)
# [11] = Permeability coefficient of the compound in PBS buffer at pH 7.4 incubated for 5 hrs by PAMPA-based LC-MS analysis; format: ADME; settings: read-out: Kp
# D(2) dopamine receptor [12] = biological target: T3, D(2) dopamine receptor; experiment: Binding affinity to D2L receptor (unknown origin) assessed as inhibition constant
# [13] = biological target: T1, 5-hydroxytryptamine receptor 1A; experiment: Binding affinity to 5-HT1AR (unknown origin) assessed as inhibition constant
# [14] = biological target: T2, 5-hydroxytryptamine receptor 6; experiment: Binding affinity to 5-HT6R (unknown origin) assessed as inhibition constant
# T2 sequence (P50406 whole entry): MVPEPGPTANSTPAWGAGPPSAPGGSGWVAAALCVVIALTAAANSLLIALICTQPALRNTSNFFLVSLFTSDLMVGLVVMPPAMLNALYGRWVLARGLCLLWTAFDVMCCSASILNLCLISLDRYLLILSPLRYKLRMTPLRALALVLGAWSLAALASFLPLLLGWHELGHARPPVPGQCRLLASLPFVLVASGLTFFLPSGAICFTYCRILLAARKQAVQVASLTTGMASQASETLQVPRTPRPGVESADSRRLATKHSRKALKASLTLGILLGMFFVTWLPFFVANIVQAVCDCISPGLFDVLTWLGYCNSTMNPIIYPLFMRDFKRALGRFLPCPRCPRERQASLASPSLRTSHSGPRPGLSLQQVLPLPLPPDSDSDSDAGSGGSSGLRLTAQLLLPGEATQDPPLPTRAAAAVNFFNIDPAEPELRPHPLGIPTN
# 5-hydroxytryptamine receptor 7, sequence (P34969 whole entry): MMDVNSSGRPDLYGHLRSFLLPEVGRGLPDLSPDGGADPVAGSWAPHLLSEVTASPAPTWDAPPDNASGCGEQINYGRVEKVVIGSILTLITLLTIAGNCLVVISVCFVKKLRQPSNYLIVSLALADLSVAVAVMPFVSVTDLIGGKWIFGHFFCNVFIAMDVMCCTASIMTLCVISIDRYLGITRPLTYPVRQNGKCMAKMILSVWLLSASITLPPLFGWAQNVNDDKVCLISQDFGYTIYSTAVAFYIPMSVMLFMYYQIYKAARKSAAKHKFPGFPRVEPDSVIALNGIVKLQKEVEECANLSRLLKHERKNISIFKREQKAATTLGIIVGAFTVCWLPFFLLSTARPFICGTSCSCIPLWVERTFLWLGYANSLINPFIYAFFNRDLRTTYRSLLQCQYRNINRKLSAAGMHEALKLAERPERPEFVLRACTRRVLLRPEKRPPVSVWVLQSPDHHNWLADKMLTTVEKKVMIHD
# 5-hydroxytryptamine receptor 2A, sequence (P28223 whole entry): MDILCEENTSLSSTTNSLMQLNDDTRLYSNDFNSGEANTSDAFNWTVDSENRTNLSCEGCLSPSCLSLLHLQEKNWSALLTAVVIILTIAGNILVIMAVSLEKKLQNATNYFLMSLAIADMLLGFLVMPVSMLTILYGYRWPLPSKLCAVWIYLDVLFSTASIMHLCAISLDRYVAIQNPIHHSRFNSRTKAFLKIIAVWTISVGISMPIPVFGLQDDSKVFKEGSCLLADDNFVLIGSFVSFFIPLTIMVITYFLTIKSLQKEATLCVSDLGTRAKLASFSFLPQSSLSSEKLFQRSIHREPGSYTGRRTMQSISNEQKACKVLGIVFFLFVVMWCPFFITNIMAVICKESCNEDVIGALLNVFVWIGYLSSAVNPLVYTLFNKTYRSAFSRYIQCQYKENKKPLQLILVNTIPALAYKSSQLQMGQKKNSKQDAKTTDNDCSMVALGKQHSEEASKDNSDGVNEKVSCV
# T3 sequence (P14416 whole entry): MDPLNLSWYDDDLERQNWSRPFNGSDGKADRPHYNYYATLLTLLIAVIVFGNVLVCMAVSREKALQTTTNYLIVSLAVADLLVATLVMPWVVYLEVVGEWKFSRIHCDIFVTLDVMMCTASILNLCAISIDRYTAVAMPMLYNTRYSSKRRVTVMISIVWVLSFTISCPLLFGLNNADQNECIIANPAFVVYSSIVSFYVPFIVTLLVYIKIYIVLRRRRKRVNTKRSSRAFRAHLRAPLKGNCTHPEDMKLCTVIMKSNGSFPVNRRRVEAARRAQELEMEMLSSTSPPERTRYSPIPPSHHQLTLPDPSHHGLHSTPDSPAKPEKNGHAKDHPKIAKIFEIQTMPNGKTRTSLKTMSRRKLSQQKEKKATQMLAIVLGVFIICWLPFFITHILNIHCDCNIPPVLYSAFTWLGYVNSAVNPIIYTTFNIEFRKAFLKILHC
# CYP3A4, sequence (P08684 whole entry): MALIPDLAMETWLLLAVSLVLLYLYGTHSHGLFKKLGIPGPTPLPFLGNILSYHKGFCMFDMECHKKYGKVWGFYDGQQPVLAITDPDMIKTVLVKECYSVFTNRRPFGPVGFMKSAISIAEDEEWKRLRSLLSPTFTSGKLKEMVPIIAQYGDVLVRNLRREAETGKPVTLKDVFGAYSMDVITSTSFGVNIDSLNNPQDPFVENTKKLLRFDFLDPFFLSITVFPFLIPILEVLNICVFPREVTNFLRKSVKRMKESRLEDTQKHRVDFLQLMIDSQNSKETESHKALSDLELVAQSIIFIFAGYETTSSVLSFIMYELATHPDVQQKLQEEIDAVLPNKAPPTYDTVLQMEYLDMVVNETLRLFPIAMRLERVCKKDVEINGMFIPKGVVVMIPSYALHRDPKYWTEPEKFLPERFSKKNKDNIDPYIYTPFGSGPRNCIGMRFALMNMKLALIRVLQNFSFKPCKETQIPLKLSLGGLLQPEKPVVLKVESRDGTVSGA
Structure (SMILES),Ki [1],Ki [2],Ki [3],Ki [4],Ki (D(2) dopamine receptor [5]),further results
NC(=O)NCCCCCCN1CCN(c2cccc(Cl)c2)CC1,183 nM,39 nM,195 nM,4930 nM,235 nM,
NC(=O)N1CCN(c2cccc(Cl)c2)CC1,22800 nM,7010 nM,32400 nM,7490 nM,116000 nM,
O=c1n(CCCCCCN2CCN(c3cccc(Cl)c3)CC2)c2cccc3c2n1CCC3,61 nM,74 nM,66 nM,1140 nM,18 nM,
NS(=O)(=O)NCCCCCCN1CCN(c2cccc(Cl)c2)CC1,167 nM,21 nM,329 nM,1530 nM,229 nM,
O=S1(=O)N(CCCCCCN2CCN(c3cccc(Cl)c3)CC2)c2cccc3c2N1CCC3,162 nM,70 nM,282 nM,1690 nM,253 nM,
O=c1n(CCCCCCN2CCN(c3cccc4ccccc34)CC2)nc2ccccn12,186 nM,6 nM,223 nM,285 nM,32 nM,
O=c1n(CCCCCCN2CCN(c3cccc4c3OCCO4)CC2)nc2ccccn12,271 nM,1 nM,434 nM,2840 nM,60 nM,Ratio Ki (Homo sapiens): 60; Kb [6]: 2 nM
O=c1n(Cc2ccc(CN3CCN(c4ccc(Cl)cc4)CC3)cc2)nc2ccccn12,201000 nM,467 nM,1450 nM,2140 nM,1390 nM,
O=c1n(Cc2ccc(CN3CCN(c4cccc(Cl)c4)CC3)cc2)nc2ccccn12,3470 nM,52 nM,1070 nM,1160 nM,148 nM,
O=c1[nH]c2ccccc2n1CCN1CCN(c2cccc(C(F)(F)F)c2)CC1 [FLIBANSERIN],,,,,,Ki [7]: 11.8 nM
O=C(NCCCCCCn1nc2ccccn2c1=O)N1CCN(c2cccc(Cl)c2)CC1,462 nM,35 nM,530 nM,2550 nM,1940 nM,"Activity [8]: Non-Toxic; Activity [9]: Toxic; Ratio Ki (Homo sapiens): 55; remaining at 2 h, 50 µM [10]: 0%; inhibition at 10 µM (CYP3A4): 75%; Papp at 5 h [11]: 2.9 ×10⁻⁶ cm/s"
Cn1c(=O)c2c(ncn2C)n(C)c1=O [CAFFEINE],,,,,,Papp at 5 h [11]: 12.2 ×10⁻⁶ cm/s
O=c1n(CCCCCCN2CCN(c3cccc(Cl)c3Cl)CC2)nc2ccccn12,243 nM,7 nM,47 nM,299 nM,9 nM,
O=c1n(CCCCCCN2CCN(c3cccc(C(F)(F)F)c3)CC2)nc2ccccn12,1070 nM,17 nM,291 nM,404 nM,62 nM,
O=c1n(CCCCCCN2CCN(c3cccc4cccnc34)CC2)nc2ccccn12,655 nM,3 nM,2200 nM,4140 nM,143 nM,Kb [6]: 3.6 nM
S=c1n(CCCCCCN2CCN(c3cccc(Cl)c3)CC2)c2cccc3c2n1CCC3,171 nM,206 nM,258 nM,582 nM,85 nM,
O=c1n(CC2CCC(CN3CCN(c4cccc(Cl)c4)CC3)CC2)nc2ccccn12 (stereo not given),257 nM,31 nM,493 nM,4580 nM,559 nM,Ratio Ki (Homo sapiens): 18
Clc1cccc(N2CCNCC2)c1 [CHLOROPHENYLPIPERAZINE],,,,,,Ki (D(2) dopamine receptor [12]): > 10 µM; Ki [13]: 42 nM; Ki [14]: 1750 nM

# — ChEMBL document CHEMBL5154833, “New N-aryl-N'-aryl-/(thio)ureido-/sulfamoylamino-derivatives of alkyl/alkylcarbamoyl piperazines: Effect of structural modifications on selectivity over 5-HT1A receptor” (Eur J Med Chem, 2022)
